We go through 32 compounds from ChEMBL document CHEMBL1137253, “Novel C-3 N-urea, amide, and carbamate dihydroindazolo[5,4-a]pyrrolo[3,4-c]carbazole analogs as potent TIE-2 and VEGF-R2 dual inhibitors” (Bioorg Med Chem Lett, 2006).

The target of data set [1] is Angiopoietin-1 receptor (Homo sapiens, UniProt Q02763).
The nature of data set [2]: Half life in rat at 1 mg/kg, iv. Format: ADME, organism-based. Further details: dose 1 mg/kg, route intravenous. The conditions noted are these: in vivo.
A short description of data set [3]: AUC (0-t) in rat at 1 mg/kg, iv. Format: ADME, organism-based. Set-up: dose 1 mg/kg, route intravenous. The conditions noted are these: plasma.
Data set [4] can be described thus: AUC (0-infinity) in rat at 1 mg/kg, iv. The data set is classed as ADME, organism-based. Further details: time infinity, dose 1 mg/kg, route intravenous. The conditions noted are these: plasma.
Data set [5] can be described thus: Volume of distribution in rat at 1 mg/kg, iv. Format: ADME, organism-based. Set-up: dose 1 mg/kg, route intravenous. As to conditions: in vivo, read-out: Vdss.
Data set [6] is described as follows: Clearance in rat at 1 mg/kg, iv. The data set is classed as ADME, organism-based. Set-up: dose 1 mg/kg, route intravenous. As to conditions: in vivo.
A short description of data set [7]: Tmax in rat at 5 mg/kg, po. Format: ADME, organism-based. Further details: dose 5 mg/kg, route oral. As to conditions: in vivo.
Data set [8] in a line: AUC (0-t) in rat at 5 mg/kg, po. Further details: dose 5 mg/kg, route oral. The data set is classed as ADME, organism-based. The conditions noted are these: plasma.
The nature of data set [9]: AUC (0-infinity) in rat at 5 mg/kg, po. Format: ADME, organism-based. Further details: time infinity, dose 5 mg/kg, route oral. The conditions noted are these: plasma.
Data set [10] can be described thus: Cmax in rat at 5 mg/kg, po. Further details: dose 5 mg/kg, route oral. The conditions noted are these: in vivo. The data set is classed as ADME, organism-based.
The species named for data set [11] is Mus musculus. The data set is described as follows: Antitumor activity against murine SVR cells in nude mice. The data set is classed as functional.
For data set [12], the system named is Rattus norvegicus. In words: Toxicity assessed by gastrointestinal hemorrhage in rat at 10 mg/kg. The conditions noted are these: in vivo. Further details: dose 10 mg/kg. Format: organism-based.

Chain of Angiopoietin-1 receptor (Q02763 whole entry): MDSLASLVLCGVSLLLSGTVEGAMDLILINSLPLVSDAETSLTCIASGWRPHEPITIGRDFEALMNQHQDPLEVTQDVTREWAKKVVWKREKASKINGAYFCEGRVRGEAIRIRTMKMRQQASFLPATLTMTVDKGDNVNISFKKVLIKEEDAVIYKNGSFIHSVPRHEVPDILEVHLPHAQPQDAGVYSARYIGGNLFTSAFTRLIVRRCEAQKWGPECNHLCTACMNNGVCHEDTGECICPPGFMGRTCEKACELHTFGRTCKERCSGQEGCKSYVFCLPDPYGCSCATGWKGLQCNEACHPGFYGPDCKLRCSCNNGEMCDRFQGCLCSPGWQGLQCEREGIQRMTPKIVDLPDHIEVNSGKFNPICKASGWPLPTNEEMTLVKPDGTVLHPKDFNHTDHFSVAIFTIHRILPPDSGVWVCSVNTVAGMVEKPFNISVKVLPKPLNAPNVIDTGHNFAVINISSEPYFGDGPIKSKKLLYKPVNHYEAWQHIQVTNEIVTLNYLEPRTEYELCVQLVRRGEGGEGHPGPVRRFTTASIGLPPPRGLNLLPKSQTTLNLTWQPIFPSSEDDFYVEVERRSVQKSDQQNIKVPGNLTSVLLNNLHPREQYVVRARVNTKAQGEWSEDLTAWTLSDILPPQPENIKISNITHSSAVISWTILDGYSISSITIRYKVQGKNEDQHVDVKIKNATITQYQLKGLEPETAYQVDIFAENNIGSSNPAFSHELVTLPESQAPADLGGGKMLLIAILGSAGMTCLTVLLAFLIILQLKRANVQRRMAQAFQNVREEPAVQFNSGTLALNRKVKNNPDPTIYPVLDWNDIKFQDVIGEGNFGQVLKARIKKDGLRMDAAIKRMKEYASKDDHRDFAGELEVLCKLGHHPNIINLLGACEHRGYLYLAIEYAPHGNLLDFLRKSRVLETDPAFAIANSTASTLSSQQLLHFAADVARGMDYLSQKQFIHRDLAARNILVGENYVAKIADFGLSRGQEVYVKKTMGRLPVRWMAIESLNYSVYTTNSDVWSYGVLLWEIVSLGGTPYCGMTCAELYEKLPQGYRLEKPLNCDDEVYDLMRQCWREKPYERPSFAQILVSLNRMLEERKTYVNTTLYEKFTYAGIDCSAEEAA

`CCCn1c2ccc(NC(=O)Nc3ccccc3)cc2c2c3c(c4c(c21)CCc1nn(C)cc1-4)C(=O)NC3` showed a 50% inhibitory concentration (IC50) in data set [1] of 5 nM. In other words, the single-digit nanomolar range. Compound `CCCn1c2ccc(NC(=O)Nc3ccc(OC)cc3)cc2c2c3c(c4c(c21)CCc1nn(C)cc1-4)C(=O)NC3` returned an IC50 in data set [1] of 2 nM. This IC50 is about 2.5-fold lower than that of the compound before. The same measure, in the same setting: then `CCCn1c2ccc(NC(=O)Nc3cc(C)ccc3F)cc2c2c3c(c4c(c21)CCc1nn(C)cc1-4)C(=O)NC3`, with 1 nM; and `CCCn1c2ccc(NC(=O)Oc3ccc(OC)cc3)cc2c2c3c(c4c(c21)CCc1nn(C)cc1-4)C(=O)NC3`, with 5 nM. The compound `CC(C)Cn1c2ccc(N)cc2c2c3c(c4c(c21)CCc1nn(C)cc1-4)C(=O)NC3` registered an IC50 in [1] of 48 nM. This IC50 lies about 9.6-fold higher than the previous one. On the same count and under the same terms, then `COc1ccc(NC(=O)Nc2ccc3c(c2)c2c4c(c5c(c2n3CC(C)C)CCc2nn(C)cc2-5)C(=O)NC4)cc1`, with 3 nM; and `COc1cccc(NC(=O)Nc2ccc3c(c2)c2c4c(c5c(c2n3CC(C)C)CCc2nn(C)cc2-5)C(=O)NC4)c1`, with 4 nM.

For the compound `CC(C)Cn1c2ccc(NC(=O)c3ccco3)cc2c2c3c(c4c(c21)CCc1nn(C)cc1-4)C(=O)NC3`, the midpoint of inhibition in [1], the IC50, lay at 20 nM. This IC50 is about 5-fold higher than that of the compound before. Take `CCCn1c2ccc(NC(=O)Nc3ccccc3Cl)cc2c2c3c(c4c(c21)CCc1nn(C)cc1-4)C(=O)NC3`: it took 3 nM to reach half-maximal inhibition in data set [1] (IC50). This IC50 is about 6.7-fold lower than that of the compound before. In turn, `CCCn1c2ccc(NC(=O)N(C)c3ccccc3)cc2c2c3c(c4c(c21)CCc1nn(C)cc1-4)C(=O)NC3` registered an IC50 in [1] of 2 nM.

`CCCn1c2ccc(NC(=O)Nc3ccc(SC)cc3)cc2c2c3c(c4c(c21)CCc1nn(C)cc1-4)C(=O)NC3` showed an IC50 in data set [1] of 3 nM. Compound `CCCn1c2ccc(NC(=O)OC(C)C)cc2c2c3c(c4c(c21)CCc1nn(C)cc1-4)C(=O)NC3` showed a half-life in data set [2] of 2.84 h. Besides, the figures for the AUC(0-t) in data set [3] and in [8] were 1420 ng·h/mL and 2420 ng·h/mL, respectively. Further, the AUC(0-inf) in data set [4] turned out to be 1710 ng·h/mL; in [9] it was 3770 ng·h/mL. Also, the Vd in data set [5] was determined as 2.34 L/kg. In data set [6], this compound had a clearance of 10.5 mL/min/kg. Moreover, in data set [7], the Tmax stood at 4 h. In data set [10], the peak level (Cmax) was 552 ng/mL. In addition, the Activity in data set [11] is reported as 62%; in [12], “Toxic”. The compound further came in with an IC50 in data set [1] of 11 nM. `CCCn1c2ccc(NC(=O)OCC)cc2c2c3c(c4c(c21)CCc1nn(C)cc1-4)C(=O)NC3` displayed an IC50 in data set [1] of 18 nM.

For the compound `CCCCn1c2ccc(N)cc2c2c3c(c4c(c21)CCc1nn(C)cc1-4)C(=O)NC3`, in [1], half-maximal inhibition (IC50) required 230 nM. On the same count and under the same terms, then `CCCn1c2ccc(NC(=O)Nc3cccs3)cc2c2c3c(c4c(c21)CCc1nn(C)cc1-4)C(=O)NC3`, with 19 nM; and `CCCn1c2ccc(NC(=O)Nc3ccc(Cl)cc3)cc2c2c3c(c4c(c21)CCc1nn(C)cc1-4)C(=O)NC3`, with 6 nM; and `CCCn1c2ccc(NC(=O)c3cccs3)cc2c2c3c(c4c(c21)CCc1nn(C)cc1-4)C(=O)NC3`, with 12 nM.

`CCCn1c2ccc(NC(=O)Oc3ccc(F)cc3)cc2c2c3c(c4c(c21)CCc1nn(C)cc1-4)C(=O)NC3` registered an IC50 in data set [1] of 11 nM. This IC50 and that of the compound before are within 1.5-fold of each other. On the same count and under the same terms, then `COc1ccccc1NC(=O)Nc1ccc2c(c1)c1c3c(c4c(c1n2CC(C)C)CCc1nn(C)cc1-4)C(=O)NC3`, with 8 nM. The same measure, in the same setting: the same measure for `CCCn1c2ccc(N)cc2c2c3c(c4c(c21)CCc1nn(C)cc1-4)C(=O)NC3`: 36 nM; for `CCCOC(=O)Nc1ccc2c(c1)c1c3c(c4c(c1n2CCC)CCc1nn(C)cc1-4)C(=O)NC3`: 7 nM.

Compound `CCCCn1c2ccc(NC(=O)Nc3ccc(OC)cc3)cc2c2c3c(c4c(c21)CCc1nn(C)cc1-4)C(=O)NC3` yielded an IC50 in data set [1] of 7 nM. On the same count and under the same terms, then `CCCn1c2ccc(NC(=O)Nc3ccc(F)cc3)cc2c2c3c(c4c(c21)CCc1nn(C)cc1-4)C(=O)NC3`, with 2 nM; and `CCCn1c2ccc(NC(=O)Nc3ccc(N(C)C)cc3)cc2c2c3c(c4c(c21)CCc1nn(C)cc1-4)C(=O)NC3`, with 6 nM. `CCCn1c2ccc(NC(=O)Nc3ccccc3Br)cc2c2c3c(c4c(c21)CCc1nn(C)cc1-4)C(=O)NC3`: the midpoint of inhibition in data set [1], the IC50, lay at 4 nM.

As to `CCCn1c2ccc(NC(=O)Nc3ccc(C)cc3)cc2c2c3c(c4c(c21)CC(C=N)=CC4)C(=O)NC3`, in data set [1], the IC50 amounted to 3 nM. Same read-out and setting: the same measure for `CCn1c2ccc(NC(=O)Nc3ccc(OC)cc3)cc2c2c3c(c4c(c21)CCc1nn(C)cc1-4)C(=O)NC3`: 4 nM; for `CCCn1c2ccc(NC(=O)Nc3ccccc3F)cc2c2c3c(c4c(c21)CCc1nn(C)cc1-4)C(=O)NC3`: 2 nM. As for `CCCn1c2ccc(NC(=O)c3ccco3)cc2c2c3c(c4c(c21)CCc1nn(C)cc1-4)C(=O)NC3`, in [1], inhibition was half-maximal at 29 nM (IC50). Against the preceding compound, the IC50 is about 14-fold higher. For the compound `CCCn1c2ccc(NC(=O)Nc3cccc(F)c3)cc2c2c3c(c4c(c21)CCc1nn(C)cc1-4)C(=O)NC3`, in [1], it took 2 nM to reach half-maximal inhibition (IC50). This IC50 is about 14-fold lower than that of the compound before. Same read-out and setting: the same measure for `CC(C)Cn1c2ccc(NC(=O)c3cccs3)cc2c2c3c(c4c(c21)CCc1nn(C)cc1-4)C(=O)NC3`: 10 nM. Same read-out and setting: then `CCCn1c2ccc(NC(=O)Nc3cc(C(F)(F)F)ccc3F)cc2c2c3c(c4c(c21)CCc1nn(C)cc1-4)C(=O)NC3`, with 4 nM.

Broadly, the IC50 is the concentration at which inhibition is half-maximal. A high value points to a need for much substance. Usually half-life stands for the time needed for the level to fall by half in the phase considered. Broadly, the AUC(0-t) is the area under the concentration-time curve up to a stated or last time point. Low readings indicate low exposure, high ones high exposure. One may read the AUC(0-inf) as total exposure, with the tail of the curve extrapolated. Higher therefore signals high exposure. By clearance is commonly meant a measure of how efficiently the substance is removed, as volume per time. Read a high clearance as a high capacity for elimination. In general, Tmax refers to the time from dosing to the highest level. As a reminder, the Cmax is the peak of the concentration-time curve.
